According to patent US20170226139A1, “CRYSTALLINE SALTS OF (Z)-O-OCTADEC-9-EN-1-YL O,O-DIHYDROGEN PHOSPHOROTHIOATE” (priority 2013, published 2017):
Marks after values point to notes of the source that are not given here.

Experiments:
Human LPA2 = Human LPA2 (Homo sapiens, UniProt Q9HBW0); assay: Calcium-mobilization assay (FURA-2), human LPA2 transfected cells; type: cell-based; set-up: expressed in transfected cells; host or cells: mouse embryonic fibroblasts (MEF) or rat hepatoma RH7777
Description: We investigated structure-activity relationships across species, LPAR subtypes and between Rx100 and two known process impurities encountered in manufacture: Rx103 (‘E’ isomer) and Rx200 (oleyl phosphate and impurity, which can be an Rx100 degradant along with oleyl alcohol). Rx100, Rx103, Rx200 and native LPA were investigated at different human LPAR subtypes. In addition, the activity of these compounds was evaluated at LPA2 receptors from the rhesus, rat and mouse species. Human LPA1/2/3 subtypes were transfected into mouse embryonic fibroblasts (MEF) or rat hepatoma cells (RH7777)—both of which are normally non-responsive or null to LPA. Human LPA4 was transfected into Chinese hamster ovary (CHO) cells and LPA5 into the B103 neuroblastoma cell line. […] The B103 rat neuroblastoma cell line is endogenously nonresponsive to LPA but expresses heterologous LPA5 receptors well. […] LPAR activation elicits a G-protein-mediated transient rise in intracellular calcium level that is proportional to the concentration of LPA applied. The intracellular calcium level was quantified by the calcium-selective fluorescent indicator FURA-2 (e.g., increased intracellular calcium surge=increased fluorescence).

[1] = tested on: C57BL/6 murine Animal Model of GI-ARS; assay: Survival after partial body irradiation (tibial sparing), murine Animal Model of GI-ARS (Studies 4.1.4, 4.1.5, 4.1.8); type: in vivo, C57BL/6 mice; details: for Survival Day 10, Rx100 arm (survivors/animals) / Survival Day ≧30, Rx100 arm (survivors/animals) / Survival Advantage Day 10 / Survival Advantage Day ≧30: Murine (♀), start +24; for Survival Advantage Day 10 / Survival Advantage Day ≧30 / Survival advantage 0.3 mg/kg / Survival advantage 3 mg/kg / Survival advantage: vs vehicle; for Survival, 0.3 mg/kg / Survival, 3 mg/kg / Survival advantage 0.3 mg/kg / Survival advantage 3 mg/kg: Study 4.1.4, Phase 2 + 3; for Survival, 0.3 mg/kg / Survival, 3 mg/kg: q12 h × 6 from 24 h after PBI; for Survival advantage / Survival, Rx100 at 3 mg/kg/12 × 6: Study 4.1.8, Phase 1 + 2, female C57BL/6; for Survival advantage: 3 mg/kg/12 h × 6
Description: These Animal Model studies were all conducted using partial body irradiation (PBI) with tibial bone marrow sparing except the earliest study which was performed with Total Abdominal Irradiation (TAI). The male Rhesus macaque model was developed by MacVittie. The female inbred murine PBI GI-ARS Animal Model was developed by the inventors. […] Differences in radiation sensitivity by gender in rodent species are well appreciated. We are not aware of PBI GI-ARS models other than these that meet criteria required to conduct a prospective, blinded, controlled, randomized study of efficacy.
A synopsis from each of the completed three sequential efficacy studies in the C57BL/6 murine partial body irradiation model of GI-ARS is provided below. […] Study WBS 4.1.8 was a pilot study of the efficacy of Rx100 at the preferred dose and regimen. The latter two studies (4.1.5) and 4.1.8) were blinded, randomized and controlled. The former study was not blinded but was controlled and randomized (WBS 4.1.4).
Study was initiated on Feb. […] Experiments were started on Feb.
Phase 1 (n=32 per group per sex) was designed as an expanded pilot dose-ranging study (0.3, 1.0, 3.0, and 10 mg/kg) to select two Rx100 doses for additional testing in phases 2 and 3. Phases 2 and 3 (enrolled n=64 per group per gender) were conducted at the selected Rx100 doses (0.3 and 3.0 mg/kg) to ensure sufficient sample size to power an assessment of survival advantage. The latter study was conducted in two phases based on facility limitations (up to 120 animals can be handled readily in one radiation sequence). […] A higher radiation dose was used in Phases 2 and 3 and two intermediate doses selected empirically (0.3 and 3.0 mg/kg). The study was carried out to 30 days post irradiation in all phases. The primary endpoint in this study was survival at Day 10. The modified intent-to-treat primary study population was defined as those animals that survived anesthesia following irradiation. Survival advantage was calculated as the percent survival in the active arm minus the percent survival in the vehicle arm for males and females separately with pairwise comparison by Chi-Square as a test of significance without adjustment for multiple testing. Significance was declared at the 0.05 level (two-sided). […] See Kaplan-Meier FIG. 32.
The study was initiated on Apr. […] Experiments were started on Apr.
Under the study design, four radiation doses were selected for vehicle administration. […] The study was performed in female mice only. […] Animals were randomized but stratified by weight to assure equivalent weights in each arm. The study was conducted in two phases to assure adequate subject numbers based on limitations on the number of animals that can be processed per phase (120). The primary endpoint in this study was survival at Day 10 but the study was carried out to Day 30.

[2] = Rx Bio 415, 3 mg/kg (q12 × 6), 15.62-64 Gy
[3] = RxBio 414, 0.3 mg/kg (q12 × 6), 15.65-8 Gy
[4] = RxBio 414, 3 mg/kg (q12 × 6), 15.65-8 Gy
[5] = RxBio 418F, 3 mg/kg (q12 × 6), 15.55-67 Gy (pooled)
[6] = RxBio 418F, 3 mg/kg (q12 × 6), 15.55 Gy
[7] = RxBio 418F, 3 mg/kg (q12 × 6), 15.62 Gy
[8] = RxBio 418F, 3 mg/kg (q12 × 6), 15.67 Gy
[9] = Study 4.1.5, female, 3 mg/kg q12 h×6 starting 24 hours after PBI

Human LPA2, sequence (Q9HBW0 whole entry): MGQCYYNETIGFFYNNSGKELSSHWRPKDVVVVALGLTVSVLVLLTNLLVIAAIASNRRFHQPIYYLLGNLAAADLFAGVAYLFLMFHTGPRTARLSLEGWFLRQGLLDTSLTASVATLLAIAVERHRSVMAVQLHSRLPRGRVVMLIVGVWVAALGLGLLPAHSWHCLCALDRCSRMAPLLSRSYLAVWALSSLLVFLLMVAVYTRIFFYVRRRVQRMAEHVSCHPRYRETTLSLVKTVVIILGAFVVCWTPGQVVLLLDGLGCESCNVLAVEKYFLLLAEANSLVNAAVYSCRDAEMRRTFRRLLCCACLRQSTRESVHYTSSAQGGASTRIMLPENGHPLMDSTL

With `CCCCCCCC/C=C\CCCCCCCCOP(O)(O)=S` [Rx100, (Z)—O-octadec-9-en-1-yl O,O-dihydrogen phosphorothioate] the EC50 (Human LPA2) was 124 nM, the Emax (Human LPA2; read-out: Emax (% of LPA)) was 100% and the “Survival Day 10, Rx100 arm (survivors/animals)” value [1, 2] was 18/32. The “Survival Day ≧30, Rx100 arm (survivors/animals)” value [1, 2] was 9/32, the “Survival Advantage Day 10” value [1, 2] was 50% and the “Survival Advantage Day ≧30” value [1, 2] was 28%. For the same molecule, the “Survival Day 10, Rx100 arm (survivors/animals)” value [1, 3] was 29/60, the “Survival Day ≧30, Rx100 arm (survivors/animals)” value [1, 3] was 20/60 and the “Survival Advantage Day 10” value [1, 3] was 5%. The “Survival Advantage Day ≧30” value [1, 3] was 23%, the “Survival Day 10, Rx100 arm (survivors/animals)” value [1, 4] was 41/64 and the “Survival Day ≧30, Rx100 arm (survivors/animals)” value [1, 4] was 23/64. For the same molecule, the “Survival Advantage Day 10” value [1, 4] was 23%, the “Survival Advantage Day ≧30” value [1, 4] was 26% and the “Survival Day 10, Rx100 arm (survivors/animals)” value [1, 5] was 52/105. The “Survival Day ≧30, Rx100 arm (survivors/animals)” value [1, 5] was 42/105, the “Survival Advantage Day 10” value [1, 5] was 32% and the “Survival Advantage Day ≧30” value [1, 5] was 25%. The “Survival Day 10, Rx100 arm (survivors/animals)” value [1, 6] was 16/34, the “Survival Day ≧30, Rx100 arm (survivors/animals)” value [1, 6] was 13/34 and the “Survival Advantage Day 10” value [1, 6] was 25%. For the same molecule, the “Survival Advantage Day ≧30” value [1, 6] was 22%, the “Survival Day 10, Rx100 arm (survivors/animals)” value [1, 7] was 21/36 and the “Survival Day ≧30, Rx100 arm (survivors/animals)” value [1, 7] was 17/36. The “Survival Advantage Day 10” value [1, 7] was 47%, the “Survival Advantage Day ≧30” value [1, 7] was 39% and the “Survival Day 10, Rx100 arm (survivors/animals)” value [1, 8] was 15/35. The “Survival Day ≧30, Rx100 arm (survivors/animals)” value [1, 8] was 12/35, the “Survival Advantage Day 10” value [1, 8] was 23% and the “Survival Advantage Day ≧30” value [1, 8] was 14%. The “Survival, 0.3 mg/kg” value ([1]; Females, Day 10) was 48.3% (29/60), the “Survival, 3 mg/kg” value ([1]; Females, Day 10) was 64.1% (41/64) and the “Survival advantage 0.3 mg/kg” value ([1]; Females, Day 10) was 7.3%. For the same molecule, the “Survival advantage 3 mg/kg” value ([1]; Females, Day 10) was 23.1%*, the “Survival, 0.3 mg/kg” value ([1]; Females, Day 30) was 33.3% (20/60) and the “Survival, 3 mg/kg” value ([1]; Females, Day 30) was 35.9% (23/41). The “Survival advantage 0.3 mg/kg” value ([1]; Females, Day 30) was 23.5%*, the “Survival advantage 3 mg/kg” value ([1]; Females, Day 30) was 26.1%* and the “Survival, 0.3 mg/kg” value ([1]; Males, Day 10) was 38.2% (21/55). For the same molecule, the “Survival, 3 mg/kg” value ([1]; Males, Day 10) was 41.4% (24/58), the “Survival advantage 0.3 mg/kg” value ([1]; Males, Day 10) was −2.2% and the “Survival advantage 3 mg/kg” value ([1]; Males, Day 10) was 1.0%. For the same molecule, the “Survival, 0.3 mg/kg” value ([1]; Males, Day 30) was 12.7% (7/55), the “Survival, 3 mg/kg” value ([1]; Males, Day 30) was 17.2% (10/58) and the “Survival advantage 0.3 mg/kg” value ([1]; Males, Day 30) was −17.1%. For the same molecule, the “Survival advantage 3 mg/kg” value ([1]; Males, Day 30) was 12.6%, the “increase in survival at Day 10” value ([1]; Study 4.1.4, female, 0.3 mg/kg/12 h/6, not statistically significant) was 7.3% and the “survival advantage at Day 10” value ([1]; Study 4.1.4, female, 3 mg/kg/12 h×6 starting 24 hours after PBI, statistically significant) was 23.1%. For the same molecule, the “survival benefit by Day 30” value ([1]; Study 4.1.4, female, both 0.3 mg/kg and 3 mg/kg) was “a benefit was seen”, the “survival benefit in male animals” value ([1]; Study 4.1.4, male) was “no survival benefit” and the “survival advantage at Day 10” value [1, 9] was 50%. For the same molecule, the “survival advantage through Day 30” value [1, 9] was 28%, the “efficacy with delayed start of dosing” value ([1]; Study 4.1.5, female, dosing started ≧48 hours after radiation) was “Efficacy was not seen” and the “efficacy and toxicity in male mice” value ([1]; Study 4.1.5, male, 3 mg/kg q12 h×6) was “neither efficacy nor toxicity was seen”. The Survival advantage ([1]; 15.55 Gy, Day 10) was 24.9%*, the Survival advantage ([1]; 15.55 Gy, Day 30) was 21.5%* and the Survival advantage ([1]; 15.62 Gy, Day 10) was 47.2%*. It also gave a Survival advantage ([1]; 15.62 Gy, Day 30) of 38.9%*, a Survival advantage ([1]; 15.67 Gy, Day 10) of 22.9%* and a Survival advantage ([1]; 15.67 Gy, Day 30) of 14.3%. The “Survival, Rx100 at 3 mg/kg/12 × 6” value ([1]; 15.55 Gy, Day 10) was 47.1%, the “Survival, Rx100 at 3 mg/kg/12 × 6” value ([1]; 15.55 Gy, Day 30) was 38.2% and the “Survival, Rx100 at 3 mg/kg/12 × 6” value ([1]; 15.62 Gy, Day 10) was 58.3. For the same molecule, the “Survival, Rx100 at 3 mg/kg/12 × 6” value ([1]; 15.62 Gy, Day 30) was 47.2%, the “Survival, Rx100 at 3 mg/kg/12 × 6” value ([1]; 15.67 Gy, Day 10) was 42.9% and the “Survival, Rx100 at 3 mg/kg/12 × 6” value ([1]; 15.67 Gy, Day 30) was 34.3%. The “survival advantage at Day 10 and Day 30” value ([1]; Study 4.1.8, female, 3 mg/kg q12 h×6 starting at 24 hours after PBI) was “clinically and statistically significant survival advantage”, the “Day 10 survival” value ([1]; females, treatment administered starting at 24 hours after radiation) was 56.3% and the survival ([1]; male mice, comparable group) was 72%.
